In patent publication US11718618B2, “Substituted pyrido[2,1-a]isoquinolines as VMAT2 inhibitors” (priority 2021, dated 2023):

Experiments:
male Sprague-Dawley rats = test: Open-field hypolocomotion / locomotor activity (LMA) assay; type: in vivo; conditions: Rattus norvegicus, pre-treatment 60 or 120 minutes, beam breaks in 30 min, read-out: ED50, reduction of locomotor activity
Protocol: The effect of VMAT2 inhibitors on dopamine depletion was measured using the locomotor activity (LMA) assay. Following a pre-treatment time of 60 or 120 minutes, male Sprague-Dawley rats (200-250 g) were placed in a clear cage surrounded by photocell detectors (San Diego Instruments). Rat locomotor activity was detected by breaks in the photocell beams and activity is defined as the number of beam breaks in 30 min. Data was analyzed by one-way analysis of variance (ANOVA; SigmaStat version 3.0.1, SPSS, Chicago, Ill.) followed by the Student Newman Keuls post-hoc test for significance.

male Wistar rats = test: Conditioned avoidance response (CAR) assay of antipsychotic activity; type: in vivo, rat; conditions: for Avoidance and escape failures: 0.3 mg/kg, oral, Wistar rats; for ED50: Rattus norvegicus, read-out: ED50, conditioned avoidance response
Protocol: Animals: Adult male Wistar rats from Envigo (Indianapolis, Ind.) were used in this study. Rats were received at approximately 150 g, assigned unique identification numbers and group housed 2-3 per cage in ventilated cages. All rats were examined, handled, and weighed prior to initiation of the study to assure adequate health and suitability. During the course of the study, 12/12 light/dark cycles were maintained. The RT was maintained between 20° C. and 23° C. with a relative humidity around 50%. Chow and water were provided ad libitum for the duration of the study. All testing was conducted during the light cycle of the rats.
Compound 4-1 (0.03, 0.1, 0.3, and 1 mg/kg) was formulated in 0.25% methyl cellulose and administered orally at a dose volume of 3 mL/kg 120 minutes prior to test.
Compound 4-15 (0.03, 0.1, 0.3, and 1 mg/kg) was formulated in 0.25% methyl cellulose and administered orally at a dose volume of 3 mL/kg 120 minutes prior to test.
In the CAR paradigm, an animal is trained to respond to a conditioned stimulus (auditory and visual) by negative reinforcement (foot shock). Numerous studies have shown that typical and atypical antipsychotic drugs selectively suppress CAR, thus making it an ideal assay to screen potential antipsychotic compounds (Wadenberg & Hicks, Neuroscience and Biobehavioral Reviews, (1999) 23:851-862).
Rats were placed in the CAR two-way shuttle box and the training period of 20 trials ensued. A trial consisted of a 10-sec presentation of an 80 dB white noise followed by a scrambled 0.6 mA foot shock lasting up to 20 sec. The inter-trial interval ranged from 20-60 sec. The rat learned to avoid shock by moving from one compartment to the other when the cue is presented. […] The following measures were captured from the assay:
Avoidance response: If the rat moved from one compartment to the other during the cued-stimulus (CS) presentation. Decreased avoidance responding is the typical signature of an efficacious dose of an antipsychotic.
Avoidance response data were expressed as the number of avoidance responses as well as percent of avoidance responses based on the three baseline responses prior to drug test. Escape failures were expressed as the total number of failures during the test session.
Body weight and avoidance data were analyzed by analysis of variance (ANOVA) followed by Dunnett's post-hoc comparisons when appropriate. Escape failures were analyzed by Kruskal-Wallis nonparametric analysis followed by Dunn's post hoc comparisons when appropriate. Results are reported as mean SEM. An effect was considered statistically significant if p<0.05.

human VMAT2 = human VMAT2 (Homo sapiens (Human), UniProt Q05940); test: VMAT2 radioligand binding, 3H-dihydrotetrabenazine competition on human platelet homogenate; conditions: 10 nM 3H-dihydrotetrabenazine, human platelet homogenate, 25° C., 90 minutes; read-out: VMAT2 Ki
Outline: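 Ki from scintillation counting of filter-bound ³H-dihydrotetrabenazine (10 nM) after 90 min, 25 °C incubation with twelve concentrations of compound. Membranes: human platelet homogenate, 30 μg protein per well; buffer DPBS, 1 mM EDTA, pH 7.4.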

[1] = Stability of compounds in human liver microsomes; type: in vitro ADME; conditions: for CLint scaled at 0.5 μM / half-life at 0.5 μM: both sexes, pH 7.4; for CLint scaled at 0.5 μM: liver microsomes, calculated from HLM half-life, read-out: HLM Scaled Intrinsic Clearance; for CLint scaled at 0.5 μM / Predicted Max. Bioavailability (% F) / HLM Predicted Systemic Clearance: human; for half-life at 0.5 μM: 0.5 μM compound, 0.5 mg/mL human liver microsomes, 37° C., maxed at 420 minutes, read-out: HLM Elimination half-life (t1/2, min); for Predicted Max. Bioavailability (% F): predicted from HLM data; for HLM Predicted Systemic Clearance: scaled from HLM half-life (Obach method)
Outline: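 Compound at 0.5 μM incubated at 37 °C with pooled mixed-gender human liver microsomes (0.5 mg/mL protein) and an NADPH-generating system in pH 7.4 phosphate buffer, sampled 0–60 min. Parent depletion tracked by LC-MS/MS; t1/2 derived from the slope by non-linear regression, with predicted extraction ratio and maximum bioavailability also calculated.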

VMAT2 = conditions: Scherman et al. 1983; read-out: IC50, inhibition of catecholamine uptake by VMAT2; cited from earlier work
[2] = once formed, in patients administered (±)-TBZ; cited from earlier work

Sequence of human VMAT2 (Q05940 whole entry): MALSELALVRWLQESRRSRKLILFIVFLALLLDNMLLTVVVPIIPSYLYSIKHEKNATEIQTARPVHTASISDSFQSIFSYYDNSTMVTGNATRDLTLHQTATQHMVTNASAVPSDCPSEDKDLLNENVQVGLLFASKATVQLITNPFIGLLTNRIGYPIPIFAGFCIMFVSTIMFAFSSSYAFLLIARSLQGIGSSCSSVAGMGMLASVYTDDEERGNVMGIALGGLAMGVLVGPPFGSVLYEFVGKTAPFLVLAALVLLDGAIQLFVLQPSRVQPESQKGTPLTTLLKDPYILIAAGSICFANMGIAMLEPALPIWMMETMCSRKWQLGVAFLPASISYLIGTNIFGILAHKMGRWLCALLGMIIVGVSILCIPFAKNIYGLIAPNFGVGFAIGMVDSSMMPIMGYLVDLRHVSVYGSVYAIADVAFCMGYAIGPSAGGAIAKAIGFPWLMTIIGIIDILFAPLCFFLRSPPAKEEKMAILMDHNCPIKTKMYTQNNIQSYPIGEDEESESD

SMILES	ED50 (male Sprague-Dawley rats) [mg/kg]	Avoidance and escape failures (male Wistar rats)	ED50 (male Wistar rats) [mg/kg]	Ki (human VMAT2) [nM]	CLint scaled at 0.5 μM [1] [mL/min/kg]	half-life at 0.5 μM [1] [min]	Predicted Max. Bioavailability (% F) [1] [% F]	HLM Predicted Systemic Clearance [1] [mL/min/kg]	IC50 (VMAT2) [nM]	half-life [2]
COc1cc2c(cc1OCCC(F)(F)F)CCN1C[C@@H](CC(C)(C)C)[C@H](O)C[C@H]21 [Compound 4-15, (2R,3R,11bR)-3-(2,2-dimethylpropyl)-10-methoxy-9-(3,3,3-trifluoropropoxy)-1H,2H,3H,4H,6H,7H,11bH-pyrido[2,1-a]isoquinolin-2-ol]	0.18	reduction in avoidance without significant increase in escape failures	0.44	1.1	4.05	308	83	3.37		
COc1cc2c(cc1OCC(F)(F)F)CCN1C[C@@H](CC(C)(C)C)[C@H](O)C[C@H]21 [Compound 4-1, (2R,3R,11bR)-3-(2,2-dimethylpropyl)-10-methoxy-9-(2,2,2-trifluoroethoxy)-1H,2H,3H,4H,6H,7H,11bH-pyrido[2,1-a]isoquinolin-2-ol]	0.24	reduction in avoidance without significant increase in escape failures	0.55	2.4	≤ 2.97	≥ 420	≥87	≤2.59		
COc1cc2c(cc1OC)C1CC(O)C(CC(C)C)CN1CC2 (stereo not drawn) [[+]-beta-DHTBZ, 3-isobutyl-9,10-dimethoxy-1,3,4,6,7,11b-hexahydro-2H-pyrido[2,1-a]isoquinolin-2-ol]										approximately 5 hours
